7 molecules from patent US20250288624A1, “LONG-TERM STABILIZATION, FORMULATION AND TABLETING OF LIVE MICROBIAL CELLS” (priority 2022, published 2025) can be followed below.

The test system of test [1] is Medicago truncatula A17. Kind of test: Plant nodulation assay with stabilized E. meliloti. The test is classed as in vivo. Conditions: E. meliloti formulated in the material, 50° C. shock for 24 hours, rehydrated, applied to seedlings. On the procedure: E. meliloti cultures were prepared as described above (see “High throughput pipeline for microbial material stabilizers”) and freeze-dried with the specified stabilizers following the 1-well plate method described in “Validation of two-material combinations”. The bagged, stabilized powders were exposed to 50° C. for 24 hours in a static incubator and then kept in the dark at 4° C. until used.
Nodulation of Medicago truncatula A17 was assayed according to a protocol from Sadowsky et al. modified to growth in pouches^20-22. Specifically, M. truncatula A17 seeds (Noble Research Institute) were scarified by submerging in concentrated sulfuric acid for 8-9 minutes, washed 8× with sterile water, sterilized by submerging in 8.25% sodium hypochlorite for 90 seconds, washed 8× with sterile water, allowed to imbibe in sterile water for ˜1 hour, placed on 1% agar plates, sealed with parafilm and foil, vernalized at 4° C. in the dark for 5 days and germinated at 23° C. in the dark for 20 hours. […]
The pouches were left undisturbed for 6 days, watered with 5 mL of 1/2×BNM as necessary and then inspected for nodules every other day. On day 12, the number of nodulated seedlings in each pouch was counted. The percent nodulated seedlings was calculated by dividing the number of nodulated seedlings by the total number of seedlings in the pouch.

The subject of test [2] is E. meliloti. Kind of test: Heat shock screen of material library at 50° C. for 24 hours (Viability Score). The test is classed as cell-based, Ensifer meliloti. On the procedure: FIG. 18. E. meliloti stabilizers against 24 hours at 50° C. Extended data of FIG. 8. E. meliloti was mixed with the material library at the 1×concentration, freeze dried, and exposed to 50° C. for 24 hours. The viability score was characterized as in FIG. 8, and the data is ordered by the viability score of the comparison values when stored at 23° C.
E. meliloti is currently used as a seed inoculant prior to planting, however, there remains a need for improved stability of the microbial product present during formulation, storage, and seed inoculation, particularly when it comes to tolerance to elevated temperatures above 40° C.^28,29. […] Functional symbiosis was measured as percent of seedlings that successfully formed nodules. […]
(§1) The viability of the stored microbial-material combinations was determined by rehydrating in water, making 10-fold serial dilutions in PBS, plating onto the appropriate solid medium and quantifying the resulting colonies. […]
(§2) To assign a Viability Score, using FIJI (imageJ), the 16-bit tiff plate images were programmatically separated into individual spot images, each spot was segmented, and several image attributes were measured (raw particle count, mean background value, mean segmented region value, segmented region area). […]

Test [3] deals with Escherichia coli Nissle 1917, Ensifer meliloti, Saccharomyces boulardii, Lactobacillus plantarum. Put plainly: High throughput pipeline for microbial material stabilizers (Viability Score after freeze-drying). The test is classed as cell-based. Conditions: for viability score: after freeze-drying and 24 hours at room temperature, across the 4 microorganisms, score 0 to 1. Here is the method:
It was hypothesized that a synthetic extremophile that could survive in the dry state could then be enhanced to survive additional environmental insults using material formulation techniques applied to the dry powder (e.g., coating)^9. Therefore, a library was screened, composed primarily of materials generally recognized as safe (GRAS) by the Food and Drug Administration (FDA) for their ability to protect microbes through freeze-drying and survival at room temperature for 24 hours (Table 2). This materials library was applied to 4 microorganisms (Escherichia coli Nissle 1917, Ensifer meliloti, Saccharomyces boulardii, Lactobacillus plantarum) that span a wide range of phylogenetic backgrounds, are technologically important and genetically tractable. Each microorganism was mixed with each of the 260 materials at two different concentrations to give 2,080 microbial-material formulations.
Microbial strains were precultured overnight in 5 mL liquid medium at the appropriate conditions (see above). The overnight culture was diluted 1:1000 fold into three replicates of 125 mL of fresh liquid medium in a flask and cultured for 24 hours. The optical density (OD600) of each replicate culture was recorded (typically 2-2.5 for E. coli Nissle 1917, E. meliloti, L. plantarum and 5-6 for S. boulardii) and the cells were pelleted at 3220 rcf for 15 minutes. The cell pellets were then resuspended in PBS (E. meliloti, L. plantarum, S. boulardii) or spent medium (E. coli Nissle 1917) to a final OD600 of 2.25 and used immediately.
The material library was prepared by mixing each material with ultrapure water to the specified concentration (1×, 5×) in Table 2. The material solutions were arrayed in sealed deep well plates and kept at −20° C. until needed. On the day of use, the material plates were thawed at room temperature, vortexed well and centrifuged briefly.
To freeze-dry, each replicate microbial cell suspension (25 uL) was mixed with the arrayed materials (75 uL) in batch into flat-bottom 96-well plates using a liquid handling robot (Tecan, EVO 150). […]
as §1, §2

Test [4] has as its system E. coli Nissle 1917. Put plainly: Validation of two-material combinations at 37° C. The test is classed as cell-based, Escherichia coli. As to conditions: in combination with melibiose, larger format. On the procedure: E. coli Nissle 1917 was prepared as described above (see “Vial-based viability validation”) with a few modifications: the flask culture was 2 L and incubated for 17-18 hours and the final cell suspension in PBS was set to an OD600 of 10-12.
To freeze-dry, the cell suspension (12.5 mL) was mixed with the target material combination (37.5 mL), poured into rectangular 1-well plates, and placed into a tray freeze dryer with shelfs pre-cooled to −40° C. and on custom 0.25-inch aluminum pedestals to ensure heat transfer to the plates. Samples were dried as described above (see “High throughput pipeline”). […]
The viability of the stored samples was assessed by hydrating the samples with 1 mL PBS, making 10-fold serial dilutions, spotting ˜1.5 uL of each dilution in triplicate onto LB agar in 1-well rectangular plates using a pin replicator (V&P Scientific, VP 407A), incubating at 37° C., and counting colonies on the strongest dilution that gives >1 colony per spot. Total CFU counts per sample were calculated by first dividing spot counts by the spotted volume and multiplying by the dilution factor and total rehydration volume, and then averaging across the three spotting replicates. Total CFU counts per mass were calculated by dividing the CFU counts per sample by the mass of the stored sample. Three independently stored replicate samples were analyzed as described. […]

`OC[C@H]1O[C@H](O[C@H]2[C@H](O)[C@@H](O)C(O)O[C@@H]2CO)[C@H](O)[C@@H](O)[C@@H]1O` (mixture of isomers) [maltose]: the “nodulation of M. truncatula seedlings by stabilized E. meliloti” value in test [1] was “successfully nodulate”. In test [2], the “material class in heat shock screen (synthetic thermotolerance)” value is on record as “optimal”.

Consider `[Na+].[OH-]` [sodium hydroxide], for which, in test [3], the viability score is 0.

In the case of `OC[C@H]1O[C@H](OCC2O[C@@H](O)[C@H](O)[C@@H](O)[C@@H]2O)[C@H](O)[C@@H](O)[C@H]1O` (stereo partly drawn) [melibiose], the “performance in stabilizer screen” value in test [3] (E. coli Nissle 1917) was “best performing material”.

For the molecule `O=S([O-])S(=O)(=O)[O-].[Na+].[Na+]` [sodium metabisulfite], the viability score in test [3] amounted to 0.

For the molecule `OC[C@H]1O[C@H](O[C@H]2O[C@H](CO)[C@@H](O)[C@H](O)[C@H]2O)[C@H](O)[C@@H](O)[C@@H]1O` [trehalose], the viability score entry in test [3] is reported as “measurable viability”.

Consider `Cn1c(=O)c2c(ncn2C)n(C)c1=O` [caffeine], for which the “stability of two-material formulation at extended storage times” value in test [4] is recorded as “robust”.

In the case of `OC[C@H]1O[C@@](CO)(O[C@H]2O[C@H](CO)[C@@H](O)[C@H](O)[C@H]2O)[C@@H](O)[C@@H]1O` [sucrose], the “nodulation of M. truncatula seedlings by stabilized E. meliloti” value in test [1] is “successfully nodulate”. Further, the “material class in heat shock screen (synthetic thermotolerance)” value in test [2] is given as “optimal”.
